{"source": "PubChem BioAssay AID1963964", "about": "(Molecular Pharmacology Branch, DTP, NCI, 2024)", "tested_on": "997726-040-R-J2-PDC tumor spheroids, viability", "test": "Anticancer human tumor 997726-040-R-J2-PDC patient-derived squamous cell lung carcinoma cell line growth inhibition [PI3K]", "conditions": "spheroids with HUVEC and MSC; for viability, T/C: stronger effect = lower value", "in_short": "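Tumor cells grown as multi-cell spheroids with HUVEC endothelial cells and MSC fibroblast-like stroma were treated with targeted agents combined with inavolisib, alpelisib, duvelisib or copanlisib. Doses fell in half-log steps from near clinical Cmax, else from 10 microM. Viability was measured.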", "key": {"[1]": {"conditions": "curve of first compound, second compound 0.0316 µM"}, "[2]": {"conditions": "curve of first compound, second compound 0.1 µM"}, "[3]": {"conditions": "curve of first compound, second compound 0.316 µM"}, "[4]": {"conditions": "curve of first compound, second compound 1 µM"}, "[5]": {"conditions": "second compound 0.0316 µM, first compound 0.0316 µM"}, "[6]": {"conditions": "second compound 0.0316 µM, first compound 0.1 µM"}, "[7]": {"conditions": "second compound 0.0316 µM, first compound 0.316 µM"}, "[8]": {"conditions": "second compound 0.0316 µM, first compound 1 µM"}, "[9]": {"conditions": "second compound 0.0316 µM, first compound 3.16 µM"}, "[10]": {"conditions": "second compound 0.0316 µM, first compound 10 µM"}, "[11]": {"conditions": "second compound 0.1 µM, first compound 0.0316 µM"}, "[12]": {"conditions": "second compound 0.1 µM, first compound 0.1 µM"}, "[13]": {"conditions": "second compound 0.1 µM, first compound 0.316 µM"}, "[14]": {"conditions": "second compound 0.1 µM, first compound 1 µM"}, "[15]": {"conditions": "second compound 0.1 µM, first compound 3.16 µM"}, "[16]": {"conditions": "second compound 0.1 µM, first compound 10 µM"}, "[17]": {"conditions": "second compound 0.316 µM, first compound 0.0316 µM"}, "[18]": {"conditions": "second compound 0.316 µM, first compound 0.1 µM"}, "[19]": {"conditions": "second compound 0.316 µM, first compound 0.316 µM"}, "[20]": {"conditions": "second compound 0.316 µM, first compound 1 µM"}, "[21]": {"conditions": "second compound 0.316 µM, first compound 3.16 µM"}, "[22]": {"conditions": "second compound 0.316 µM, first compound 10 µM"}, "[23]": {"conditions": "second compound 1 µM, first compound 0.0316 µM"}, "[24]": {"conditions": "second compound 1 µM, first compound 0.1 µM"}, "[25]": {"conditions": "second compound 1 µM, first compound 0.316 µM"}, "[26]": {"conditions": "second compound 1 µM, first compound 1 µM"}, "[27]": {"conditions": "second compound 1 µM, first compound 3.16 µM"}, "[28]": {"conditions": "second compound 1 µM, first compound 10 µM"}}, "note": "“And” between values parts separate entries of the source, which are not always exact repeats. Equal entries are not always repeated.", "data": [{"compound": "CC(Cn1ccc(-c2ccc(C#N)c(Cl)c2)n1)NC(=O)c1cc(C(C)O)[nH]n1", "note": "(stereo unspecified) + CC(Nc1ncnc2nc[nH]c12)c1cc2cccc(Cl)c2c(=O)n1-c1ccccc1;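 further: spheroids exposed to compounds for seven days before readout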", "values": [{"measurement": "IC50", "setting": "[1]", "result": "> 10", "unit": "µM"}, {"measurement": "IC50", "setting": "[2]", "result": "> 10", "unit": "µM"}, {"measurement": "IC50", "setting": "[3]", "result": "> 10", "unit": "µM"}, {"measurement": "IC50", "setting": "[4]", "result": "> 10", "unit": "µM"}, {"measurement": "IC50", "setting": "curve of first compound, second compound 3.16 µM", "result": "> 10", "unit": "µM"}, {"measurement": "IC50", "setting": "curve of first compound, second compound 10 µM", "result": "> 10", "unit": "µM"}, {"measurement": "viability, T/C", "setting": "[5]", "result": 100, "unit": "%"}, {"measurement": "viability, T/C", "setting": "[6]", "result": 88.5, "unit": "%"}, {"measurement": "viability, T/C", "setting": "[7]", "result": 104, "unit": "%"}, {"measurement": "viability, T/C", "setting": "[8]", "result": 109, "unit": "%"}, {"measurement": "viability, T/C", "setting": "[9]", "result": 100, "unit": "%"}, {"measurement": "viability, T/C", "setting": "[10]", "result": 105, "unit": "%"}, {"measurement": "viability, T/C", "setting": "[11]", "result": 108, "unit": "%"}, {"measurement": "viability, T/C", "setting": "[12]", "result": 100, "unit": "%"}, {"measurement": "viability, T/C", "setting": "[13]", "result": 109, "unit": "%"}, {"measurement": "viability, T/C", "setting": "[14]", "result": 96.4, "unit": "%"}, {"measurement": "viability, T/C", "setting": "[15]", "result": 116, "unit": "%"}, {"measurement": "viability, T/C", "setting": "[16]", "result": 108, "unit": "%"}, {"measurement": "viability, T/C", "setting": "[17]", "result": 94.3, "unit": "%"}, {"measurement": "viability, T/C", "setting": "[18]", "result": 92.1, "unit": "%"}, {"measurement": "viability, T/C", "setting": "[19]", "result": 95.1, "unit": "%"}, {"measurement": "viability, T/C", "setting": "[20]", "result": 92.6, "unit": "%"}, {"measurement": "viability, T/C", "setting": "[21]", "result": 101, "unit": "%"}, {"measurement": "viability, T/C", "setting": "[22]", "result": 98.2, "unit": "%"}, {"measurement": "viability, T/C", "setting": "[23]", "result": 93.9, "unit": "%"}, {"measurement": "viability, T/C", "setting": "[24]", "result": 88.4, "unit": "%"}, {"measurement": "viability, T/C", "setting": "[25]", "result": 91.6, "unit": "%"}, {"measurement": "viability, T/C", "setting": "[26]", "result": 87.2, "unit": "%"}, {"measurement": "viability, T/C", "setting": "[27]", "result": 91.5, "unit": "%"}, {"measurement": "viability, T/C", "setting": "[28]", "result": 88.2, "unit": "%"}, {"measurement": "viability, T/C", "setting": "second compound 3.16 µM, first compound 0.0316 µM", "result": 78.1, "unit": "%"}, {"measurement": "viability, T/C", "setting": "second compound 3.16 µM, first compound 0.1 µM", "result": 70.5, "unit": "%"}, {"measurement": "viability, T/C", "setting": "second compound 3.16 µM, first compound 0.316 µM", "result": 71.2, "unit": "%"}, {"measurement": "viability, T/C", "setting": "second compound 3.16 µM, first compound 1 µM", "result": 68.9, "unit": "%"}, {"measurement": "viability, T/C", "setting": "second compound 3.16 µM, first compound 3.16 µM", "result": 80.9, "unit": "%"}, {"measurement": "viability, T/C", "setting": "second compound 3.16 µM, first compound 10 µM", "result": 72.5, "unit": "%"}, {"measurement": "viability, T/C", "setting": "second compound 10 µM, first compound 0.0316 µM", "result": 51.5, "unit": "%"}, {"measurement": "viability, T/C", "setting": "second compound 10 µM, first compound 0.1 µM", "result": 56.2, "unit": "%"}, {"measurement": "viability, T/C", "setting": "second compound 10 µM, first compound 0.316 µM", "result": 48.9, "unit": "%"}, {"measurement": "viability, T/C", "setting": "second compound 10 µM, first compound 1 µM", "result": 53.7, "unit": "%"}, {"measurement": "viability, T/C", "setting": "second compound 10 µM, first compound 3.16 µM", "result": 51.5, "unit": "%"}, {"measurement": "viability, T/C", "setting": "second compound 10 µM, first compound 10 µM", "result": 52.8, "unit": "%"}]}, {"compound": "CC(Nc1ncnc2nc[nH]c12)c1cc2cccc(Cl)c2c(=O)n1-c1ccccc1", "note": "(stereo unspecified)", "values": [{"measurement": "viability, T/C", "setting": "compound 0.0316 µM", "result": "106% [middle of 8 runs]"}, {"measurement": "viability, T/C", "setting": "compound 0.1 µM", "result": "99.4% [middle of 8 runs]"}, {"measurement": "viability, T/C", "setting": "compound 0.316 µM", "result": "94.3% [middle of 8 runs]"}, {"measurement": "viability, T/C", "setting": "compound 1 µM", "result": "86.6% [middle of 8 runs]"}, {"measurement": "viability, T/C", "setting": "compound 3.16 µM", "result": "70.8% [middle of 8 runs]"}, {"measurement": "viability, T/C", "setting": "compound 10 µM", "result": "54.7% [middle of 8 runs]"}, {"measurement": "IC50", "setting": "compound alone, run of 06/13/2023", "result": "> 10 µM and 9.01 µM"}]}, {"compound": "Cn1ncc(Cl)c1-c1cc(C(=O)NC(CN)Cc2cccc(F)c2)sc1Cl", "note": "(stereo unspecified) + CC(Nc1ccc2c(c1)OCCn1cc(N3C(=O)OCC3C(F)F)nc1-2)C(N)=O", "values": [{"measurement": "IC50", "setting": "curve of first compound, second compound 0.00316 µM", "result": 0.0827, "unit": "µM"}, {"measurement": "IC50", "setting": "curve of first compound, second compound 0.01 µM", "result": 0.083, "unit": "µM"}, {"measurement": "IC50", "setting": "[1]", "result": 0.0331, "unit": "µM"}, {"measurement": "IC50", "setting": "[2]", "result": "< 0.0316", "unit": "µM"}, {"measurement": "IC50", "setting": "[3]", "result": "< 0.0316", "unit": "µM"}, {"measurement": "IC50", "setting": "[4]", "result": "< 0.0316", "unit": "µM"}, {"measurement": "viability, T/C", "setting": "second compound 0.00316 µM, first compound 0.0316 µM", "result": 75.1, "unit": "%"}, {"measurement": "viability, T/C", "setting": "second compound 0.00316 µM, first compound 0.1 µM", "result": 45.4, "unit": "%"}, {"measurement": "viability, T/C", "setting": "second compound 0.00316 µM, first compound 0.316 µM", "result": 20.1, "unit": "%"}, {"measurement": "viability, T/C", "setting": "second compound 0.00316 µM, first compound 1 µM", "result": 13.6, "unit": "%"}, {"measurement": "viability, T/C", "setting": "second compound 0.00316 µM, first compound 3.16 µM", "result": 10.8, "unit": "%"}, {"measurement": "viability, T/C", "setting": "second compound 0.00316 µM, first compound 10 µM", "result": 7.43, "unit": "%"}, {"measurement": "viability, T/C", "setting": "second compound 0.01 µM, first compound 0.0316 µM", "result": 62.8, "unit": "%"}, {"measurement": "viability, T/C", "setting": "second compound 0.01 µM, first compound 0.1 µM", "result": 48.7, "unit": "%"}, {"measurement": "viability, T/C", "setting": "second compound 0.01 µM, first compound 0.316 µM", "result": 21.5, "unit": "%"}, {"measurement": "viability, T/C", "setting": "second compound 0.01 µM, first compound 1 µM", "result": 14.8, "unit": "%"}, {"measurement": "viability, T/C", "setting": "second compound 0.01 µM, first compound 3.16 µM", "result": 8.36, "unit": "%"}, {"measurement": "viability, T/C", "setting": "second compound 0.01 µM, first compound 10 µM", "result": 5.21, "unit": "%"}, {"measurement": "viability, T/C", "setting": "[5]", "result": 50.1, "unit": "%"}, {"measurement": "viability, T/C", "setting": "[6]", "result": 39.8, "unit": "%"}, {"measurement": "viability, T/C", "setting": "[7]", "result": 21, "unit": "%"}, {"measurement": "viability, T/C", "setting": "[8]", "result": 12, "unit": "%"}, {"measurement": "viability, T/C", "setting": "[9]", "result": 7.58, "unit": "%"}, {"measurement": "viability, T/C", "setting": "[10]", "result": 3.65, "unit": "%"}, {"measurement": "viability, T/C", "setting": "[11]", "result": 41, "unit": "%"}, {"measurement": "viability, T/C", "setting": "[12]", "result": 32.6, "unit": "%"}, {"measurement": "viability, T/C", "setting": "[13]", "result": 19.7, "unit": "%"}, {"measurement": "viability, T/C", "setting": "[14]", "result": 11.2, "unit": "%"}, {"measurement": "viability, T/C", "setting": "[15]", "result": 6.59, "unit": "%"}, {"measurement": "viability, T/C", "setting": "[16]", "result": 3.25, "unit": "%"}, {"measurement": "viability, T/C", "setting": "[17]", "result": 32.3, "unit": "%"}, {"measurement": "viability, T/C", "setting": "[18]", "result": 25.9, "unit": "%"}, {"measurement": "viability, T/C", "setting": "[19]", "result": 15.7, "unit": "%"}, {"measurement": "viability, T/C", "setting": "[20]", "result": 11.2, "unit": "%"}, {"measurement": "viability, T/C", "setting": "[21]", "result": 5.81, "unit": "%"}, {"measurement": "viability, T/C", "setting": "[22]", "result": 2.34, "unit": "%"}, {"measurement": "viability, T/C", "setting": "[23]", "result": 24, "unit": "%"}, {"measurement": "viability, T/C", "setting": "[24]", "result": 23.5, "unit": "%"}, {"measurement": "viability, T/C", "setting": "[25]", "result": 13.6, "unit": "%"}, {"measurement": "viability, T/C", "setting": "[26]", "result": 9.98, "unit": "%"}, {"measurement": "viability, T/C", "setting": "[27]", "result": 6.08, "unit": "%"}, {"measurement": "viability, T/C", "setting": "[28]", "result": 2.69, "unit": "%"}]}]}
